Reference: US20080153701A1, “Fungicidal Mixtures” (BASF Aktiengesellschaft, priority 2004, published 2008)
Read-outs that look alike come from different tables or passages of the source.

Experiments:
Phytophthora infestans = format: cell-based; conditions: microtiter plate, 405 nm, day 7
Botrytis cinerea [1] = assay: Activity against the gray mold pathogen Botrytis cinerea in the microtiter test; format: cell-based; conditions: microtiter plate, day 7
Puccinia recondite = assay: Curative activity against brown rust of wheat (greenhouse); format: in vivo; conditions: wheat seedlings, sprayed 1 day after inoculation, rated after 7 days
Procedure: (§1) The active compounds were separately or jointly prepared as a stock solution comprising 25 mg of active compound which was made up to 10 ml using a mixture of acetone and/or DMSO and the emulsifier Uniperol® EL (wetting agent having emulsifying and dispersing action based on ethoxylated alkylphenols) in a volume ratio of solvent/emulsifier of 99 to 1. The mixture was then made up with water to 100 ml. This stock solution was diluted with the solvent/emulsifier/water mixture described to the concentration of active compounds stated below.
(§2) The visually determined percentages of infected leaf areas were converted into efficacies in % of the untreated control:
(§3) The efficacy (E) is calculated as follows using Abbot's formula: […]
(§4) α corresponds to the fungal infection of the treated plants in % and β corresponds to the fungal infection of the untreated (control) plants in %
(§5) An efficacy of 0 means that the infection level of the treated plants corresponds to that of the untreated control plants; an efficacy of 100 means that the treated plants were not infected.
(§6) The expected efficacies of combinations of active compounds were determined using Colby's formula (Colby, S. R. “Calculating synergistic and antagonistic responses of herbicide combinations”, Weeds, 15, 20-22, 1967) and compared with the observed efficacies.
(§7) E=x+y−x·y/100 • E expected efficacy, expressed in % of the untreated control, when using the mixture of the active compounds A and B at the concentrations a and b • x efficacy, expressed in % of the untreated control, when using the active compound A at the concentration a • y efficacy, expressed in % of the untreated control, when using the active compound B at the concentration b
Leaves of wheat seedlings of the cultivar “Kanzler” cultivated in pots were inoculated with a spore suspension of brown rust (Puccinia recondite). The pots were then placed in a chamber with high atmospheric humidity (90 to 95%) and at 20 to 22° C. for 24 hours. During this time, the spores germinated and the germ tubes penetrated into leaf tissue. The next day, the infected plants were sprayed to runoff point with the solution of active compound described above having the active compound concentration stated below. After the spray coating had dried on, the test plants were cultivated in a greenhouse at temperatures between 20 and 22° C. and at 65 to 70% relative atmospheric humidity for 7 days. The extent of the rust fungus development on the leaves was then determined.

Botrytis cinerea [2] = assay: Activity against Botrytis cinerea on bell peppers (greenhouse, protective spray); format: in vivo; conditions: bell pepper seedlings, sprayed 1 day before inoculation, rated after 5 days
Procedure: as §1, §2, §3, §4, §5, §6, §7
Bell pepper seedlings of the cultivar “Neusiedler Ideal Elite” were, after 2-3 leaves were well developed, sprayed to runoff point with an aqueous suspension in the active compound concentration stated below. […] After 5 days, the extent of the fungal infection on the leaves could be determined visually in %.

Question: Which Observed activity (Phytophthora infestans; 32 ppm) does the source give for `Fc1ccc([C@]2(Cn3cncn3)O[C@H]2c2ccccc2Cl)cc1` (racemic) [epoxiconazole, (2RS, 3SR)-1-[3-(2-chlorophenyl)-2,3-epoxy-2-(4-fluorophenyl)propyl]-1H-1,2,4-triazole] here?
Answer: The Observed activity was 9%.

Question: And the Observed activity (Phytophthora infestans; 125 ppm)?
Answer: The Observed activity was 31%.

Question: What about the Observed activity (Botrytis cinerea [1]; 1 ppm, 405 nm) of the same compound?
Answer: The Observed activity was 2%.

Question: How did the Observed activity (Botrytis cinerea [1]; 1 ppm, 405 nm) turn out when `Cc1ccc(-c2c(Cl)nc(C#N)n2S(=O)(=O)N(C)C)cc1` [cyazofamid, 4-chloro-2-cyano-N,N-dimethyl-5-(4-methylphenyl)-1H-imidazole-1-sulfonamide] was run?
Answer: Its Observed activity is 0%.

Question: What about the Observed activity (Botrytis cinerea [1]; concentration not printed (second line for cyazofamid)) of the same compound?
Answer: Its Observed activity is 0%.

Question: `CO/N=C(/C(=O)OC)c1ccccc1COc1ccccc1C` [kresoxim-methyl, methyl(E)-methoxyimino[α-(o-tolyloxy)-o-tolyl]acetate] was tested. Which Observed activity (Puccinia recondite; 4 ppm) did it give?
Answer: The Observed activity was 0%.

Question: What about the Observed activity (Puccinia recondite; 63 ppm) of the same compound?
Answer: Its Observed activity is 18%.

Question: And the Observed activity (Phytophthora infestans; 1 ppm)?
Answer: The Observed activity was 36%.

Question: `O=C(Nc1ccccc1-c1ccc(Cl)cc1)c1cccnc1Cl` [boscalid, 2-chloro-N-(4′-chlorbiphenyl-2-yl)nicotinamide] was tested. Which Observed activity (Puccinia recondite; 16 ppm) did it give?
Answer: The Observed activity was 0%.

Question: With `COCC(=O)N(c1c(C)cccc1C)C(C)C(=O)OC` (racemic) [metalaxyl, methyl N-(methoxyacetyl)-N-(2,6-xylyl)-DL-alaninate] as the compound, how does the Observed activity (Puccinia recondite; 16 ppm) read?
Answer: Its Observed activity is 0%.

Question: With `OC(Cc1ccccc1Cl)(Cn1nc[nH]c1=S)C1(Cl)CC1` (centres unmarked) [prothioconazole, 2-[2-(1-chlorocyclopropyl)-3-(2-chlorophenyl)-2-hydroxypropyl]-2,4-dihydro[1,2,4]triazol-3-thione] as the compound, how does the Observed activity (Phytophthora infestans; 8 ppm) read?
Answer: The Observed activity was 0%.

Question: And the Observed activity (Phytophthora infestans; 32 ppm)?
Answer: The Observed activity was 46%.

Question: With `COc1ccc(C(=CC(=O)N2CCOCC2)c2ccc(Cl)cc2)cc1OC` [dimethomorph, 3-(4-chlorophenyl)-3-(3,4-dimethoxyphenyl)-1-morpholin-4-ylpropenone] as the compound, how does the Observed activity (Puccinia recondite; 2 ppm) read?
Answer: Its Observed activity is 0%.

Question: What about the Observed activity (Puccinia recondite; 8 ppm) of the same compound?
Answer: The Observed activity was 0%.

Question: “manganese-ethylenebis(dithiocarbamate) zinc complex [mancozeb]” was tested. Which Observed activity (Botrytis cinerea [1]; 4 ppm, 405 nm) did it give?
Answer: Its Observed activity is 9%.

Question: Which Observed activity (Botrytis cinerea [1]; 0.25 ppm, 405 nm) does the source give for `COC(=O)N(OC)c1ccccc1COc1ccn(-c2ccc(Cl)cc2)n1` [pyraclostrobin, methyl N-{2-[1-(4-chlorophenyl)-1H-pyrazol-3-yloxymethyl]phenyl}(N-methoxy)carbamate] here?
Answer: The Observed activity was 20%.

Question: `O=[N+]([O-])c1cc(C(F)(F)F)c(Cl)c([N+](=O)[O-])c1Nc1ncc(C(F)(F)F)cc1Cl` [fluazinam, 3-chloro-N-[3-chloro-2,6-dinitro-4-(trifluoromethyl)phenyl]-5-(trifluoromethyl)-2-pyridinamine] was tested. Which Observed activity (Phytophthora infestans; 1 ppm) did it give?
Answer: The Observed activity was 0%.

Question: With `COC(=O)NCc1cc(/C(C)=N/OCc2cccc(C)c2)ccc1Cl` [I-B] as the compound, how does the Observed activity (Botrytis cinerea [2]; 16 ppm) read?
Answer: Its Observed activity is 10%.

Question: What about the Observed activity (Botrytis cinerea [2]; 63 ppm) of the same compound?
Answer: Its Observed activity is 20%.

Question: What about the Observed activity (Puccinia recondite; 16 ppm) of the same compound?
Answer: Its Observed activity is 6%.

Question: What about the Observed activity (Phytophthora infestans; 0.25 ppm) of the same compound?
Answer: The Observed activity was 4%.

Question: What about the Observed activity (Phytophthora infestans; 4 ppm) of the same compound?
Answer: Its Observed activity is 5%.

Question: What about the Observed activity (Phytophthora infestans; 8 ppm) of the same compound?
Answer: Its Observed activity is 27%.

Question: What about the Observed activity (Phytophthora infestans; 32 ppm) of the same compound?
Answer: The Observed activity was 35%.

Question: What about the Observed activity (Phytophthora infestans; 125 ppm) of the same compound?
Answer: The Observed activity was 57%.

Question: What about the Observed activity (Botrytis cinerea [1]; 0.25 ppm, 405 nm) of the same compound?
Answer: Its Observed activity is 2%.

Question: What about the Observed activity (Botrytis cinerea [1]; 1 ppm, 405 nm) of the same compound?
Answer: Its Observed activity is 40%.

Question: What about the Observed activity (Botrytis cinerea [1]; 4 ppm, 405 nm) of the same compound?
Answer: Its Observed activity is 67%.

Question: For `N#Cc1sc2c(=O)c3ccccc3c(=O)c=2sc1C#N` [dithianon, 5,10-dioxo-5,10-dihydronaphtho[2,3-b][1,4]dithiin-2,3-dicarbonitrile], which Observed activity (Botrytis cinerea [2]; 63 ppm) is on record?
Answer: Its Observed activity is 10%.
